Results published in the supplement of paper PMC10307832.

Tests used:
Test in all cases: relative viability (nuclei count vs DMSO), 5 days (fraction); higher = more cells survive
[1] = test system: NCI-H1703
Procedure, shortened: (§1)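 Lung cancer cell lines were seeded in 1536-well plates and dosed by pin tool the next day, with either a single drug or a fixed anchor-drug dose combined with five library-drug doses (not always all listed) spaced in √10 steps. Five days later, one step fixed the cells and stained their nuclei (final 0.05% Triton X-100, 1% formaldehyde, 1 ug/ml Hoechst), and nuclei were counted on 4× images. Relative viability is the nuclei count in treated wells divided by the count in vehicle wells, and each value is the median of duplicate plates.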

[2] = test system: IA-LM
Procedure, shortened: as §1

[3] = test system: A549
Procedure, shortened: as §1

[4] = test system: Calu-6
Procedure, shortened: as §1

[5] = test system: NCI-H1299
Procedure, shortened: as §1

[6] = test system: EBC-1
Procedure, shortened: as §1

[7] = test system: NCI-H1563
Procedure, shortened: as §1

Cc1cnc(-c2cnc(NCCNc3ccc(C#N)cn3)nc2-c2ccc(Cl)cc2Cl)[nH]1 + CS(=O)(=O)CCNCc1ccc(-c2ccc3ncnc(Nc4ccc(OCc5cccc(F)c5)c(Cl)c4)c3c2)o1 [Lapatinib] (partner 2 µM)
relative viability ([1]; first compound 0.08 µM): 1.12 | relative viability ([1]; first compound 0.253 µM): 1.02 | relative viability ([1]; first compound 0.8 µM): 1.2 | relative viability ([1]; first compound 2.53 µM): 1.28 | relative viability ([2]; first compound 0.08 µM): 0.985 | relative viability ([2]; first compound 0.253 µM): 0.864 | relative viability ([2]; first compound 0.8 µM): 0.679 | relative viability ([2]; first compound 2.53 µM): 0.685 | relative viability ([3]; first compound 0.08 µM): 0.96 | relative viability ([3]; first compound 0.253 µM): 0.942 | relative viability ([3]; first compound 0.8 µM): 1.16 | relative viability ([3]; first compound 2.53 µM): 1.14 | relative viability ([4]; first compound 0.08 µM): 1.14 | relative viability ([4]; first compound 0.253 µM): 0.991 | relative viability ([4]; first compound 0.8 µM): 1 | relative viability ([4]; first compound 2.53 µM): 1.03 | relative viability ([5]; first compound 0.08 µM): 0.954 | relative viability ([5]; first compound 0.253 µM): 0.983 | relative viability ([5]; first compound 0.8 µM): 0.948 | relative viability ([5]; first compound 2.53 µM): 0.862 | relative viability ([6]; first compound 0.08 µM): 0.253 | relative viability ([6]; first compound 0.253 µM): 0.201 | relative viability ([6]; first compound 0.8 µM): 0.215 | relative viability ([6]; first compound 2.53 µM): 0.248 | relative viability ([7]; first compound 0.08 µM): 1.06 | relative viability ([7]; first compound 0.253 µM): 0.997 | relative viability ([7]; first compound 0.8 µM): 0.963 | relative viability ([7]; first compound 2.53 µM): 1.01

Cc1cnc(-c2cnc(NCCNc3ccc(C#N)cn3)nc2-c2ccc(Cl)cc2Cl)[nH]1 + CS(=O)(=O)N1CCN(Cc2cc3nc(-c4cccc5[nH]ncc45)nc(N4CCOCC4)c3s2)CC1 [Pictilisib] (partner 1 µM)
relative viability ([1]; first compound 0.08 µM): 0.256 | relative viability ([1]; first compound 0.253 µM): 0.252 | relative viability ([1]; first compound 0.8 µM): 0.23 | relative viability ([1]; first compound 2.53 µM): 0.314 | relative viability ([2]; first compound 0.08 µM): 0.362 | relative viability ([2]; first compound 0.253 µM): 0.408 | relative viability ([2]; first compound 2.53 µM): 0.483 | relative viability ([3]; first compound 0.08 µM): 0.597 | relative viability ([3]; first compound 0.253 µM): 0.482 | relative viability ([3]; first compound 0.8 µM): 0.764 | relative viability ([3]; first compound 2.53 µM): 0.775 | relative viability ([4]; first compound 0.08 µM): 0.923 | relative viability ([4]; first compound 0.253 µM): 0.934 | relative viability ([4]; first compound 0.8 µM): 1.05 | relative viability ([4]; first compound 2.53 µM): 0.911 | relative viability ([5]; first compound 0.08 µM): 0.822 | relative viability ([5]; first compound 0.253 µM): 0.754 | relative viability ([5]; first compound 0.8 µM): 0.861 | relative viability ([5]; first compound 2.53 µM): 0.426 | relative viability ([6]; first compound 0.08 µM): 0.421 | relative viability ([6]; first compound 0.253 µM): 0.368 | relative viability ([6]; first compound 0.8 µM): 0.549 | relative viability ([6]; first compound 2.53 µM): 0.567 | relative viability ([7]; first compound 0.08 µM): 0.649 | relative viability ([7]; first compound 0.253 µM): 0.72 | relative viability ([7]; first compound 0.8 µM): 0.709 | relative viability ([7]; first compound 2.53 µM): 0.725

Cc1cnc(-c2cnc(NCCNc3ccc(C#N)cn3)nc2-c2ccc(Cl)cc2Cl)[nH]1 + C[C@@H](Oc1cc(-c2cnn(C3CCNCC3)c2)cnc1N)c1c(Cl)ccc(F)c1Cl [Crizotinib] (partner 1 µM)
relative viability ([1]; first compound 0.08 µM): 0.93 | relative viability ([1]; first compound 0.253 µM): 0.622 | relative viability ([1]; first compound 0.8 µM): 0.861 | relative viability ([1]; first compound 2.53 µM): 0.73 | relative viability ([2]; first compound 0.08 µM): 0.835 | relative viability ([2]; first compound 0.253 µM): 0.817 | relative viability ([2]; first compound 0.8 µM): 0.903 | relative viability ([2]; first compound 2.53 µM): 0.803 | relative viability ([3]; first compound 0.08 µM): 0.784 | relative viability ([3]; first compound 0.253 µM): 0.692 | relative viability ([3]; first compound 0.8 µM): 0.964 | relative viability ([3]; first compound 2.53 µM): 0.803 | relative viability ([4]; first compound 0.08 µM): 0.862 | relative viability ([4]; first compound 0.253 µM): 0.752 | relative viability ([4]; first compound 0.8 µM): 0.81 | relative viability ([4]; first compound 2.53 µM): 0.513 | relative viability ([5]; first compound 0.08 µM): 0.963 | relative viability ([5]; first compound 0.253 µM): 0.952 | relative viability ([5]; first compound 0.8 µM): 0.989 | relative viability ([5]; first compound 2.53 µM): 0.845 | relative viability ([6]; first compound 0.08 µM): 0.191 | relative viability ([6]; first compound 0.253 µM): 0.217 | relative viability ([6]; first compound 0.8 µM): 0.191 | relative viability ([6]; first compound 2.53 µM): 0.19 | relative viability ([7]; first compound 0.08 µM): 0.92 | relative viability ([7]; first compound 0.253 µM): 0.891 | relative viability ([7]; first compound 0.8 µM): 0.767 | relative viability ([7]; first compound 2.53 µM): 0.903

Cc1cnc(-c2cnc(NCCNc3ccc(C#N)cn3)nc2-c2ccc(Cl)cc2Cl)[nH]1 + C[C@]1(O)C[C@@H](c2nc(-c3ccc4ccc(-c5ccccc5)nc4c3)c3c(N)nccn32)C1 [Linsitinib] (partner 1 µM)
relative viability ([1]; first compound 0.08 µM): 0.986 | relative viability ([1]; first compound 0.253 µM): 0.631 | relative viability ([1]; first compound 0.8 µM): 0.884 | relative viability ([1]; first compound 2.53 µM): 1.21 | relative viability ([2]; first compound 0.08 µM): 0.604 | relative viability ([2]; first compound 0.253 µM): 0.257 | relative viability ([2]; first compound 0.8 µM): 0.744 | relative viability ([2]; first compound 2.53 µM): 0.542 | relative viability ([3]; first compound 0.08 µM): 0.719 | relative viability ([3]; first compound 0.253 µM): 0.477 | relative viability ([3]; first compound 0.8 µM): 0.468 | relative viability ([3]; first compound 2.53 µM): 0.548 | relative viability ([4]; first compound 0.08 µM): 1.01 | relative viability ([4]; first compound 0.253 µM): 0.888 | relative viability ([4]; first compound 2.53 µM): 0.971 | relative viability ([5]; first compound 0.08 µM): 0.882 | relative viability ([5]; first compound 0.253 µM): 0.967 | relative viability ([5]; first compound 0.8 µM): 0.503 | relative viability ([5]; first compound 2.53 µM): 0.861 | relative viability ([6]; first compound 0.08 µM): 0.913 | relative viability ([6]; first compound 0.253 µM): 0.713 | relative viability ([6]; first compound 0.8 µM): 0.859 | relative viability ([6]; first compound 2.53 µM): 0.819 | relative viability ([7]; first compound 0.08 µM): 1.33 | relative viability ([7]; first compound 0.253 µM): 1.2 | relative viability ([7]; first compound 0.8 µM): 1.22 | relative viability ([7]; first compound 2.53 µM): 1.1

Cc1cnc(-c2cnc(NCCNc3ccc(C#N)cn3)nc2-c2ccc(Cl)cc2Cl)[nH]1 + Cc1nc(NC(=O)N2CCC[C@H]2C(N)=O)sc1-c1ccnc(C(C)(C)C(F)(F)F)c1 [Alpelisib] (partner 2 µM)
relative viability ([1]; first compound 0.08 µM): 0.329 | relative viability ([1]; first compound 0.253 µM): 0.312 | relative viability ([1]; first compound 0.8 µM): 0.37 | relative viability ([1]; first compound 2.53 µM): 0.535 | relative viability ([2]; first compound 0.08 µM): 0.837 | relative viability ([2]; first compound 0.253 µM): 0.77 | relative viability ([2]; first compound 0.8 µM): 0.86 | relative viability ([2]; first compound 2.53 µM): 0.826 | relative viability ([3]; first compound 0.08 µM): 0.853 | relative viability ([3]; first compound 0.253 µM): 0.753 | relative viability ([3]; first compound 0.8 µM): 0.818 | relative viability ([3]; first compound 2.53 µM): 0.94 | relative viability ([4]; first compound 0.08 µM): 0.946 | relative viability ([4]; first compound 0.253 µM): 0.924 | relative viability ([4]; first compound 0.8 µM): 0.934 | relative viability ([4]; first compound 2.53 µM): 0.822 | relative viability ([5]; first compound 0.08 µM): 1.01 | relative viability ([5]; first compound 0.253 µM): 0.992 | relative viability ([5]; first compound 0.8 µM): 1.1 | relative viability ([5]; first compound 2.53 µM): 0.996 | relative viability ([6]; first compound 0.08 µM): 0.796 | relative viability ([6]; first compound 0.253 µM): 0.782 | relative viability ([6]; first compound 0.8 µM): 0.78 | relative viability ([6]; first compound 2.53 µM): 0.812 | relative viability ([7]; first compound 0.08 µM): 1.02 | relative viability ([7]; first compound 0.253 µM): 0.9 | relative viability ([7]; first compound 0.8 µM): 0.946 | relative viability ([7]; first compound 2.53 µM): 0.913

O=C(O)CCCCC(CCSCc1ccccc1)SCc1ccccc1 (stereo not drawn) [CPI-613] + CS(=O)(=O)CCNCc1ccc(-c2ccc3ncnc(Nc4ccc(OCc5cccc(F)c5)c(Cl)c4)c3c2)o1 [Lapatinib] (partner 2 µM)
relative viability ([1]; first compound 5 µM): 0.943 | relative viability ([1]; first compound 15.81 µM): 1.11 | relative viability ([1]; first compound 50 µM): 1.1 | relative viability ([1]; first compound 158.11 µM): 0.452 | relative viability ([1]; first compound 500 µM): 0.274 | relative viability ([2]; first compound 5 µM): 0.694 | relative viability ([2]; first compound 15.81 µM): 0.802 | relative viability ([2]; first compound 50 µM): 0.665 | relative viability ([2]; first compound 158.11 µM): 0.269 | relative viability ([2]; first compound 500 µM): 0.208 | relative viability ([3]; first compound 5 µM): 0.933 | relative viability ([3]; first compound 15.81 µM): 0.967 | relative viability ([3]; first compound 50 µM): 0.787 | relative viability ([3]; first compound 158.11 µM): 0.348 | relative viability ([3]; first compound 500 µM): 0.249 | relative viability ([4]; first compound 5 µM): 1.04 | relative viability ([4]; first compound 15.81 µM): 1.03 | relative viability ([4]; first compound 50 µM): 0.866 | relative viability ([4]; first compound 158.11 µM): 0.775 | relative viability ([4]; first compound 500 µM): 0.563 | relative viability ([5]; first compound 5 µM): 0.923 | relative viability ([5]; first compound 15.81 µM): 0.945 | relative viability ([5]; first compound 50 µM): 0.965 | relative viability ([5]; first compound 158.11 µM): 0.899 | relative viability ([5]; first compound 500 µM): 0.888 | relative viability ([6]; first compound 5 µM): 0.252 | relative viability ([6]; first compound 15.81 µM): 0.213 | relative viability ([6]; first compound 50 µM): 0.212 | relative viability ([6]; first compound 158.11 µM): 0.175 | relative viability ([6]; first compound 500 µM): 0.145 | relative viability ([7]; first compound 5 µM): 1 | relative viability ([7]; first compound 15.81 µM): 0.886 | relative viability ([7]; first compound 50 µM): 0.998 | relative viability ([7]; first compound 158.11 µM): 0.427 | relative viability ([7]; first compound 500 µM): 0.103
